{
  "source": "patent US12594268B2",
  "about": "“Methods of treating Fabry disease in patients having a mutation in the GLA gene” (Amicus Therapeutics, Inc., priority 2018, dated 2026)",
  "format_in_all_cases": "cell-based",
  "key": {"[1]": {"biological_target": "T1, α-Gal A mutant form S62delinsLA (Homo sapiens, UniProt P06280, INS61L/S62A)", "T1 construct": "expressed in transfected cells; host or cells: HEK-293", "T1 sequence (P06280 with tags, fused parts or gaps INS61L/S62A)": "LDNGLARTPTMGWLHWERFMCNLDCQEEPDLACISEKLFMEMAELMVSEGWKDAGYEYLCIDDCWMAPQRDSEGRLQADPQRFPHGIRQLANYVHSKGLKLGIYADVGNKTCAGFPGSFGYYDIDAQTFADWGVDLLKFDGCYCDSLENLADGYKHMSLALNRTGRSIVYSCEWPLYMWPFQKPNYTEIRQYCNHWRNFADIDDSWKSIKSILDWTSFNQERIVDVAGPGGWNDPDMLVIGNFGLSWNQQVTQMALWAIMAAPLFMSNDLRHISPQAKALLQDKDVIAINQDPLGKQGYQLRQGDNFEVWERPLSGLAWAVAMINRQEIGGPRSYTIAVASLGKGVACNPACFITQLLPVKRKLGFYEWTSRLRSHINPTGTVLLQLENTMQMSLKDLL", "assay": "α-Gal A activity in lysates of transfected HEK-293 cells, S62delinsLA", "method": "(§1) Baseline and 10 μM migalastat α-Gal A activity: Differences in the α-Gal A activity between lysates incubated in the absence and presence of 10 μM migalastat were determined using a one-tailed, Mann Whitney U test; an increase at 10 μM migalastat with a p<0.05 was considered significant.\n(§2) 10 μM migalastat α-Gal A activity (% WT)=(α-Gal A activity in mutant transfected cell lysates incubated with 10 μM migalastat÷α-Gal A activity in wild-type transfected cell lysates without migalastat)*100.\n(§3) Absolute increase (% WT)=is the 10 μM migalastat α-Gal A activity (% WT) minus the baseline α-Gal A activity (% WT).\n(§4) Relative increase is the 10 μM migalastat α-Gal A activity in mutant transfected cell lysates÷baseline α-Gal A activity in mutant transfected cell lysates incubated without migalastat."}, "[2]": {"biological_target": "T2, α-Gal A mutant form T412P (Homo sapiens, UniProt P06280, T412P)", "T2 construct": "expressed in transfected cells; host or cells: HEK-293", "T2 sequence (P06280 32-429 T412P)": "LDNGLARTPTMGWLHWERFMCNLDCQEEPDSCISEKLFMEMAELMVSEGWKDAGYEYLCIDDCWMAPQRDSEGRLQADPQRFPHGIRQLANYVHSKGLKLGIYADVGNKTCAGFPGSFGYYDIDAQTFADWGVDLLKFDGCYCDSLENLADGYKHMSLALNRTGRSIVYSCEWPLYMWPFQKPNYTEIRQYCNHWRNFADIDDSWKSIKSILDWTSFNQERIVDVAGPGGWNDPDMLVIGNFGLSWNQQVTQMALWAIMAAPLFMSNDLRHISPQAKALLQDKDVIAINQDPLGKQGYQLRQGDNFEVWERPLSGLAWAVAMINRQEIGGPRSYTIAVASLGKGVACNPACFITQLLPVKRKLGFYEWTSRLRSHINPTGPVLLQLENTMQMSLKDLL", "assay": "α-Gal A activity in lysates of transfected HEK-293 cells, T412P", "method": "as §1, §2, §3, §4"}, "[3]": {"biological_target": "T3, α-Gal A mutant form I239M (Homo sapiens, UniProt P06280, I239M)", "T3 construct": "expressed in transfected cells; host or cells: HEK-293", "T3 sequence (P06280 32-429 I239M)": "T2 sequence (P06280 32-429 T412P) with I208M, P381T", "assay": "α-Gal A activity in lysates of transfected HEK-293 cells, I239M", "method": "as §1, §2, §3, §4"}, "[4]": {"biological_target": "T4, α-Gal A mutant form N228D (Homo sapiens, UniProt P06280, N228D)", "T4 construct": "expressed in transfected cells; host or cells: HEK-293", "T4 sequence (P06280 32-429 N228D)": "T2 sequence (P06280 32-429 T412P) with N197D, P381T", "assay": "α-Gal A activity in lysates of transfected HEK-293 cells, N228D", "method": "as §1, §2, §3, §4"}, "[5]": {"biological_target": "T5, α-Gal A mutant form D155E (Homo sapiens, UniProt P06280, D155E)", "T5 construct": "expressed in transfected cells; host or cells: HEK-293", "T5 sequence (P06280 32-429 D155E)": "T2 sequence (P06280 32-429 T412P) with D124E, P381T", "assay": "α-Gal A activity in lysates of transfected HEK-293 cells, D155E", "method": "as §1, §2, §3, §4"}, "[6]": {"details": "10 μM migalastat minus baseline"}, "[7]": {"details": "10 μM migalastat ÷ baseline activity"}, "[8]": {"details": "HEK-293 lysates, 10 μM migalastat, 5 days, mean ± SEM"}},
  "note": "Where a chain is given by its changes, count along the chain named.",
  "data": [
    {"compound": "OC[C@H]1NC[C@H](O)[C@@H](O)[C@H]1O", "note": "[migalastat, (2R,3S,4R,5S)-2-(hydroxymethyl) piperdine-3,4,5-triol]", "values": [
      {"measurement": "Absolute increase (% WT)", "setting": "[1]; [6]", "result": 20.9, "unit": "% WT"},
      {"measurement": "Relative increase", "setting": "[1]; [7]", "result": 50.92},
      {"measurement": "10 μM migalastat α-Gal A activity", "setting": "[1]; [8]", "result": "8115 ± 810", "unit": "nmol/mg/h"},
      {"measurement": "10 μM migalastat α-Gal A activity (% WT)", "setting": "[1]; [8]", "result": "21.3 ± 1.7", "unit": "% WT"},
      {"measurement": "Absolute increase (% WT)", "setting": "[2]; [6]", "result": 16.9, "unit": "% WT"},
      {"measurement": "Relative increase", "setting": "[2]; [7]", "result": 11.21},
      {"measurement": "10 μM migalastat α-Gal A activity", "setting": "[2]; [8]", "result": "7159 ± 459", "unit": "nmol/mg/h"},
      {"measurement": "10 μM migalastat α-Gal A activity (% WT)", "setting": "[2]; [8]", "result": "18.6 ± 1.2", "unit": "% WT"},
      {"measurement": "Absolute increase (% WT)", "setting": "[3]; [6]", "result": 55.5, "unit": "% WT"},
      {"measurement": "Relative increase", "setting": "[3]; [7]", "result": 5.12},
      {"measurement": "10 μM migalastat α-Gal A activity", "setting": "[3]; [8]", "result": "24827 ± 3056", "unit": "nmol/mg/h"},
      {"measurement": "10 μM migalastat α-Gal A activity (% WT)", "setting": "[3]; [8]", "result": "69.3 ± 6.9", "unit": "% WT"},
      {"measurement": "Absolute increase (% WT)", "setting": "[4]; [6]", "result": 48.2, "unit": "% WT"},
      {"measurement": "Relative increase", "setting": "[4]; [7]", "result": 4.12},
      {"measurement": "10 μM migalastat α-Gal A activity", "setting": "[4]; [8]", "result": "25816 ± 2273", "unit": "nmol/mg/h"},
      {"measurement": "10 μM migalastat α-Gal A activity (% WT)", "setting": "[4]; [8]", "result": "63.2 ± 5.4", "unit": "% WT"},
      {"measurement": "Absolute increase (% WT)", "setting": "[5]; [6]", "result": 14.5, "unit": "% WT"},
      {"measurement": "Relative increase", "setting": "[5]; [7]", "result": 3.81},
      {"measurement": "10 μM migalastat α-Gal A activity", "setting": "[5]; [8]", "result": "6619 ± 337", "unit": "nmol/mg/h"},
      {"measurement": "10 μM migalastat α-Gal A activity (% WT)", "setting": "[5]; [8]", "result": "19.8 ± 1.0", "unit": "% WT"}
    ]}
  ]
}
